biological target: ROCK2 (human) (UniProt O75116); test: Inhibition of ROCK2 Kinase Activity
Sequence (O75116 whole entry, looked up): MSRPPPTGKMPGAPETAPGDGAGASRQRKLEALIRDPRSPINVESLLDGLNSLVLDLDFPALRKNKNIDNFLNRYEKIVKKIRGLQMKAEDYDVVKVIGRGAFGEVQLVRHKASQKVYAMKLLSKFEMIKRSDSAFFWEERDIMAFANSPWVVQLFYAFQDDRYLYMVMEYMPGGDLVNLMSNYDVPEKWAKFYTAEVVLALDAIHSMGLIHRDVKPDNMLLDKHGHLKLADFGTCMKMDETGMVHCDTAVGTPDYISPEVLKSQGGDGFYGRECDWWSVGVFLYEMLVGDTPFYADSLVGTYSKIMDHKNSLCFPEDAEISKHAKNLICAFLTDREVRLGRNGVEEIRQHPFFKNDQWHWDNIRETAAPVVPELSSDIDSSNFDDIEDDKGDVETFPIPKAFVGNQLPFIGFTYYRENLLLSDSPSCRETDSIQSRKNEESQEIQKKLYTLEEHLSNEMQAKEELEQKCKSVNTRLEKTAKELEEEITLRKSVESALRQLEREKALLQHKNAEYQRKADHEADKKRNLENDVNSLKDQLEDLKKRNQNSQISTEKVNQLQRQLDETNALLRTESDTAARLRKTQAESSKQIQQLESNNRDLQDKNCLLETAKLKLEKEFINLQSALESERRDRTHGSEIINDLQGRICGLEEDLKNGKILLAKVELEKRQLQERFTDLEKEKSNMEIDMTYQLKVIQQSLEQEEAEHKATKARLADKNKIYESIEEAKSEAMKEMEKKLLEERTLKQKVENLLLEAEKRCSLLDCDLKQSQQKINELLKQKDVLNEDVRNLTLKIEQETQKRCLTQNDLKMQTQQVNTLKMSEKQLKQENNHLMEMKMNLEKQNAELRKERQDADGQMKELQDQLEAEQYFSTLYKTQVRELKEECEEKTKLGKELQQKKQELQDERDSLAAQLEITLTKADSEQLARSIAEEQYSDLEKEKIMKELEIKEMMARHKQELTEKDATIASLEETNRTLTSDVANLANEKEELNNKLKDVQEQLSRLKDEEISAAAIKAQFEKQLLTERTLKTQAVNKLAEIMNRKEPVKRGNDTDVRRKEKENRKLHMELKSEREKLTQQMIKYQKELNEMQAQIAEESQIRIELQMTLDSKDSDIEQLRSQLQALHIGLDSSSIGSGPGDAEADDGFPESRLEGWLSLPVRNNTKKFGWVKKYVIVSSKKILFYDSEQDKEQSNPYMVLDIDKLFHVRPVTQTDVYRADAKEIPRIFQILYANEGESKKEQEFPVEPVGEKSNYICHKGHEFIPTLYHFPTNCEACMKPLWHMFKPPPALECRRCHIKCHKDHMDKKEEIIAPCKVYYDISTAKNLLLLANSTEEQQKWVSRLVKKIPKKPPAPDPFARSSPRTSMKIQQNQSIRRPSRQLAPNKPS

Compound | IC50
COc1ccc(C2(C(=O)NCC(N)c3ccc(C(=O)Nc4ccncc4)cc3)CCCC2)cc1 (stereo unspecified) | 50 to 500 nM
NC(CNC(=O)c1ccc2cc[nH]c2c1)c1ccc(C(=O)Nc2ccncc2)cc1 (stereo unspecified) | 500 to 5000 nM
COc1cc(CC(=O)N2CCCC2C(N)c2ccc(C(=O)Nc3ccncc3)cc2)cc(OC)c1OC (stereo unspecified) | 500 to 5000 nM
NC(c1ccc(C(=O)Nc2ccncc2)cc1)C1CCCN1C(=O)C1(c2ccc(Cl)cc2Cl)CC1 (stereo unspecified) | 500 to 5000 nM
NC(CC(=O)NCc1ccc(-c2cccs2)cc1)c1ccc(C(=O)Nc2ccncc2)cc1 (stereo unspecified) | 50 to 500 nM
NC(CC(=O)NCCc1cccc(F)c1)c1ccc(C(=O)Nc2ccncc2)cc1 (stereo unspecified) | 500 to 5000 nM
CN(CC(N)c1ccc(C(=O)Nc2ccncc2)cc1)C(=O)Cc1csc(-c2ccccc2)n1 (stereo unspecified) | 500 to 5000 nM
CN(CC(N)c1ccc(C(=O)Nc2ccncc2)cc1)C(=O)Cc1ccc(Cl)cc1F (stereo unspecified) | 500 to 5000 nM
NC(c1ccc(C(=O)Nc2ccncc2)cc1)C1CCCN1C(=O)Cc1ccc(F)cc1F (stereo unspecified) | 50 to 500 nM
CN(CC(N)c1ccc(C(=O)Nc2ccncc2)cc1)C(=O)C1(c2ccc(Cl)cc2)CC1 (stereo unspecified) | 500 to 5000 nM
CC[C@H](NC(=O)CC(N)c1ccc(C(=O)Nc2ccncc2)cc1)c1ccc(C)cc1 (stereo partly specified) | 50 to 500 nM
NC(CNC(=O)C1(c2ccc(Cl)cc2)CC1)c1ccc(C(=O)Nc2ccncc2)cc1 (stereo unspecified) | 50 to 500 nM
CS(=O)(=O)NCCNC(=O)CC(N)c1ccc(C(=O)Nc2ccncc2)cc1 (stereo unspecified) | 50 to 500 nM
NC(CNC(=O)c1ccncc1)c1ccc(C(=O)Nc2ccncc2)cc1 (stereo unspecified) | 500 to 5000 nM
NC(CNC(=O)CCC1CCCCC1)c1ccc(C(=O)Nc2ccncc2)cc1 (stereo unspecified) | 50 to 500 nM
CC(C)(C(=O)NCC(N)c1ccc(C(=O)Nc2ccncc2)cc1)c1ccc(Cl)cc1F (stereo unspecified) | 50 to 500 nM
COc1ccc(C(NC(=O)CC(N)c2ccc(C(=O)Nc3ccncc3)cc2)c2ccc(OC)cc2)cc1 (stereo unspecified) | 50 to 500 nM
NC(CNC(=O)CCc1cccnc1)c1ccc(C(=O)Nc2ccncc2)cc1 (stereo unspecified) | 500 to 5000 nM
CN(CC(N)c1ccc(C(=O)Nc2ccncc2)cc1)C(=O)C1(c2ccc(F)c(F)c2)CC1 (stereo unspecified) | 500 to 5000 nM
NC(CNC(=O)C1(c2ccc(F)c(F)c2)CC1)c1ccc(C(=O)Nc2ccncc2)cc1 (stereo unspecified) | 50 to 500 nM
CN(CC(N)c1ccc(C(=O)Nc2ccncc2)cc1)C(=O)C1CCOc2ccc(F)cc21 (stereo unspecified) | 500 to 5000 nM
CN(CC(N)c1ccc(C(=O)Nc2ccncc2)cc1)C(=O)Cc1ccc(Cl)c(Cl)c1 (stereo unspecified) | 500 to 5000 nM
NC(CNC(=O)c1ccc(Oc2ccccc2)cc1)c1ccc(C(=O)Nc2ccncc2)cc1 (stereo unspecified) | 500 to 5000 nM
CCOc1ccccc1CNC(=O)CC(N)c1ccc(C(=O)Nc2ccncc2)cc1 (stereo unspecified) | 50 to 500 nM
NC(CC(=O)NC1CCCCC1)c1ccc(C(=O)Nc2ccncc2)cc1 (stereo unspecified) | 50 to 500 nM
NC(CNC(=O)c1ccc(C(=O)c2ccccc2)cc1)c1ccc(C(=O)Nc2ccncc2)cc1 (stereo unspecified) | 500 to 5000 nM

Compound | IC50
NC(CNC(=O)C1(c2ccc(F)c(F)c2)CCCC1)c1ccc(C(=O)Nc2ccncc2)cc1 (stereo unspecified) | 50 to 500 nM
NC(CC(=O)NCc1cccc(Br)c1)c1ccc(C(=O)Nc2ccncc2)cc1 (stereo unspecified) | 50 to 500 nM
NC(CC(=O)NCCc1ccc(F)cc1)c1ccc(C(=O)Nc2ccncc2)cc1 (stereo unspecified) | 50 to 500 nM
NC(CC(=O)NCCc1c[nH]c2ccccc12)c1ccc(C(=O)Nc2ccncc2)cc1 (stereo unspecified) | 50 to 500 nM
NC(c1ccc(C(=O)Nc2ccncc2)cc1)C1CCCN1C(=O)Cc1cccc(F)c1F (stereo unspecified) | 500 to 5000 nM
NC(CNC(=S)Nc1ccccc1)c1ccc(C(=O)Nc2ccncc2)cc1 (stereo unspecified) | 50 to 500 nM
NC(CC(=O)NCCc1cccs1)c1ccc(C(=O)Nc2ccncc2)cc1 (stereo unspecified) | 50 to 500 nM
COc1ccc(C2(C(=O)N(C)CC(N)c3ccc(C(=O)Nc4ccncc4)cc3)CC2)cc1 (stereo unspecified) | 500 to 5000 nM
N[C@@H](CC(=O)NCc1ccc(F)cc1)c1ccc(C(=O)Nc2ccncc2)cc1 | 50 to 500 nM
NC(CC(=O)NCc1ccccc1OC(F)(F)F)c1ccc(C(=O)Nc2ccncc2)cc1 (stereo unspecified) | 50 to 500 nM
COc1cccc(CNC(=O)CC(N)c2ccc(C(=O)Nc3ccncc3)cc2)c1OC (stereo unspecified) | 50 to 500 nM
NC(c1ccc(C(=O)Nc2ccncc2)cc1)C1CCCN1C(=O)Cc1c[nH]c2ccccc12 (stereo unspecified) | 500 to 5000 nM
NC(CC(=O)NCc1cccc(OC(F)(F)F)c1)c1ccc(C(=O)Nc2ccncc2)cc1 (stereo unspecified) | 50 to 500 nM
NC(CNC(=O)CC1CC1)c1ccc(C(=O)Nc2ccncc2)cc1 (stereo unspecified) | 500 to 5000 nM
NC(CNC(=O)Cc1ccncc1)c1ccc(C(=O)Nc2ccncc2)cc1 (stereo unspecified) | 500 to 5000 nM
NC(CC(=O)NCc1cccc(C(F)(F)F)c1)c1ccc(C(=O)Nc2ccncc2)cc1 (stereo unspecified) | 50 to 500 nM
NC(CNC(=O)c1ccccn1)c1ccc(C(=O)Nc2ccncc2)cc1 (stereo unspecified) | 500 to 5000 nM
N#Cc1cccc(C(=O)NCC(N)c2ccc(C(=O)Nc3ccncc3)cc2)c1 (stereo unspecified) | 500 to 5000 nM
Cc1ccc(C)c(CC(=O)NCC(N)c2ccc(C(=O)Nc3ccncc3)cc2)c1 (stereo unspecified) | 500 to 5000 nM
NC(c1ccc(C(=O)Nc2ccncc2)cc1)C1CCCN1C(=O)Cc1c(F)cccc1F (stereo unspecified) | 500 to 5000 nM
COc1ccc(NC(=O)CC(N)c2ccc(C(=O)Nc3ccncc3)cc2)cc1 (stereo unspecified) | 50 to 500 nM
NC(CC(=O)NC(c1ccccc1)c1ccccc1)c1ccc(C(=O)Nc2ccncc2)cc1 (stereo unspecified) | 50 to 500 nM
NC(CC(=O)NCc1ccccc1Cl)c1ccc(C(=O)Nc2ccncc2)cc1 (stereo unspecified) | 50 to 500 nM
COC(=O)C(C)NC(=O)CC(N)c1ccc(C(=O)Nc2ccncc2)cc1 (stereo unspecified) | 50 to 500 nM
COc1ccc(CC(=O)N(C)CC(N)c2ccc(C(=O)Nc3ccncc3)cc2)c(OC)c1 (stereo unspecified) | 50 to 500 nM
N[C@@H](CC(=O)NC1COc2ccccc21)c1ccc(C(=O)Nc2ccncc2)cc1 (stereo partly specified) | 50 to 500 nM

Compound | IC50
CN(CC(N)c1ccc(C(=O)Nc2ccncc2)cc1)C(=O)Cc1ccccc1F (stereo unspecified) | 500 to 5000 nM
N#Cc1ccc(C(=O)NCC(N)c2ccc(C(=O)Nc3ccncc3)cc2)cc1 (stereo unspecified) | 500 to 5000 nM
NC(CNC(=O)c1ccc(-c2ccccc2)cc1)c1ccc(C(=O)Nc2ccncc2)cc1 (stereo unspecified) | 500 to 5000 nM
NC(CNC(=O)C1CCOc2ccc(F)cc21)c1ccc(C(=O)Nc2ccncc2)cc1 (stereo unspecified) | 50 to 500 nM
CCCCC(=O)NCC(N)c1ccc(C(=O)Nc2ccncc2)cc1 (stereo unspecified) | 500 to 5000 nM
NC(c1ccc(C(=O)Nc2ccncc2)cc1)C1CCCN1C(=O)Cc1ccc(O)c([N+](=O)[O-])c1 (stereo unspecified) | 500 to 5000 nM
NC(c1ccc(C(=O)Nc2ccncc2)cc1)C1CCCN1C(=O)C1(c2ccc(Cl)cc2F)CC1 (stereo unspecified) | 500 to 5000 nM
N[C@H](CNC(=O)C1(c2ccc(F)cc2)CCCC1)c1ccc(C(=O)Nc2ccncc2)cc1 | 50 to 500 nM
COc1cccc(CC(=O)NCC(N)c2ccc(C(=O)Nc3ccncc3)cc2)c1 (stereo unspecified) | 50 to 500 nM
NC(CNC(=O)c1cccc2ccccc12)c1ccc(C(=O)Nc2ccncc2)cc1 (stereo unspecified) | 500 to 5000 nM
CC(C)CC(=O)NCC(N)c1ccc(C(=O)Nc2ccncc2)cc1 (stereo unspecified) | 500 to 5000 nM
CN(CC(N)c1ccc(C(=O)Nc2ccncc2)cc1)C(=O)C1CCSc2ccc(F)cc21 (stereo unspecified) | 5000 to 50000 nM
CN(Cc1ccccc1)C(=O)CC(N)c1ccc(C(=O)Nc2ccncc2)cc1 (stereo unspecified) | 50 to 500 nM
NC(CNC(=O)C1(c2ccc(Cl)c(Cl)c2)CCC1)c1ccc(C(=O)Nc2ccncc2)cc1 (stereo unspecified) | 50 to 500 nM
CN(CC(N)c1ccc(C(=O)Nc2ccncc2)cc1)C(=O)Cc1ccc(F)cc1Cl (stereo unspecified) | 500 to 5000 nM
NC(CNC(=O)c1ccnc2ccccc12)c1ccc(C(=O)Nc2ccncc2)cc1 (stereo unspecified) | 500 to 5000 nM
CCOc1ccc(CCNC(=O)CC(N)c2ccc(C(=O)Nc3ccncc3)cc2)cc1 (stereo unspecified) | 50 to 500 nM
CC(C)(C)ON=Cc1cccc(C(=O)NCC(N)c2ccc(C(=O)Nc3ccncc3)cc2)c1 (stereo unspecified) | 500 to 5000 nM
Cc1ccc(CNC(=O)CC(N)c2ccc(C(=O)Nc3ccncc3)cc2)cc1Cl (stereo unspecified) | 50 to 500 nM
Cc1ccccc1CC(=O)N(C)CC(N)c1ccc(C(=O)Nc2ccncc2)cc1 (stereo unspecified) | 500 to 5000 nM
NC(CC(=O)NC(Cc1ccccc1)c1ccccc1)c1ccc(C(=O)Nc2ccncc2)cc1 (stereo unspecified) | 50 to 500 nM
CN(CC(N)c1ccc(C(=O)Nc2ccncc2)cc1)C(=O)C(C)(C)c1ccsc1 (stereo unspecified) | 500 to 5000 nM
NC(CNC(=S)Nc1ccc(C(F)(F)F)cc1)c1ccc(C(=O)Nc2ccncc2)cc1 (stereo unspecified) | 500 to 5000 nM
NC(CNC(=O)C1CCOc2ccccc21)c1ccc(C(=O)Nc2ccncc2)cc1 (stereo unspecified) | 50 to 500 nM
CN(CC(N)c1ccc(C(=O)Nc2ccncc2)cc1)C(=O)C1CCc2ccccc21 (stereo unspecified) | 500 to 5000 nM
COc1ccccc1CC(=O)N(C)CC(N)c1ccc(C(=O)Nc2ccncc2)cc1 (stereo unspecified) | 500 to 5000 nM

Compound | IC50
CC(C)C(C(=O)N(C)CC(N)c1ccc(C(=O)Nc2ccncc2)cc1)c1ccc(Cl)cc1 (stereo unspecified) | 500 to 5000 nM
NC(c1ccc(C(=O)Nc2ccncc2)cc1)C1CCCN1C(=O)C1CCCc2ccccc21 (stereo unspecified) | 500 to 5000 nM
NC(CNC(=O)C1(c2ccc(F)cc2)CC1)c1ccc(C(=O)Nc2ccncc2)cc1 (stereo unspecified) | < 200 nM
NC(CC(=O)Nc1ccc(CO)cc1)c1ccc(C(=O)Nc2ccncc2)cc1 (stereo unspecified) | 50 to 500 nM
NC(CNC(=O)Cc1c[nH]c2ccccc12)c1ccc(C(=O)Nc2ccncc2)cc1 (stereo unspecified) | 50 to 500 nM
CC(C)(C(=S)NCC(N)c1ccc(C(=O)Nc2ccncc2)cc1)c1ccc(F)cc1 (stereo unspecified) | 50 to 500 nM
COc1cc(CCNC(=O)CC(N)c2ccc(C(=O)Nc3ccncc3)cc2)cc(OC)c1 (stereo unspecified) | 50 to 500 nM
CCC(C)C(=O)NCC(N)c1ccc(C(=O)Nc2ccncc2)cc1 (stereo unspecified) | 500 to 5000 nM
NC(c1ccc(C(=O)Nc2ccncc2)cc1)C1CCCN1C(=O)Cc1ccccc1 (stereo unspecified) | 50 to 500 nM
CCOCC(=O)NCC(N)c1ccc(C(=O)Nc2ccncc2)cc1 (stereo unspecified) | 500 to 5000 nM
NC(CNC(=O)Cc1c(F)cccc1F)c1ccc(C(=O)Nc2ccncc2)cc1 (stereo unspecified) | 500 to 5000 nM
CN(CC(N)c1ccc(C(=O)Nc2ccncc2)cc1)C(=O)C1CCOc2ccc(Cl)cc21 (stereo unspecified) | 500 to 5000 nM
CN(CC(N)c1ccc(C(=O)Nc2ccncc2)cc1)C(=O)C1(c2cccs2)CC1 (stereo unspecified) | 500 to 5000 nM
NC(c1ccc(C(=O)Nc2ccncc2)cc1)C1CCCN1C(=O)Cc1ccc(F)c(Cl)c1 (stereo unspecified) | 50 to 500 nM
Cc1ccc(CC(=O)N(C)CC(N)c2ccc(C(=O)Nc3ccncc3)cc2)cc1 (stereo unspecified) | 500 to 5000 nM
CC1CCCC(C(=O)NCC(N)c2ccc(C(=O)Nc3ccncc3)cc2)C1 (stereo unspecified) | 500 to 5000 nM
N[C@H](CC(=O)NCc1ccc(F)cc1)c1ccc(C(=O)Nc2ccncc2)cc1 | 50 to 500 nM
COc1ccc2c(c1)CCCC2C(=O)NCC(N)c1ccc(C(=O)Nc2ccncc2)cc1 (stereo unspecified) | 50 to 500 nM
COc1cc(OC)cc(C(=O)NCC(N)c2ccc(C(=O)Nc3ccncc3)cc2)c1 (stereo unspecified) | 500 to 5000 nM
NC(CC(=O)NCc1ccc(F)cc1Cl)c1ccc(C(=O)Nc2ccncc2)cc1 (stereo unspecified) | 50 to 500 nM
CC(C)(C)c1ccc(NC(=S)NCC(N)c2ccc(C(=O)Nc3ccncc3)cc2)cc1 (stereo unspecified) | 500 to 5000 nM
NC(CC(=O)NCc1ccccc1Br)c1ccc(C(=O)Nc2ccncc2)cc1 (stereo unspecified) | 50 to 500 nM
CC(C)(C(=O)NCC(N)c1ccc(C(=O)Nc2ccncc2)cc1)c1ccc(F)cc1Cl (stereo unspecified) | 50 to 500 nM

Source: the Kinase Knowledgebase extract (Sharma et al. 2016)
